{"source": "patent US11202836B2", "about": "“PSMA targeted conjugate compounds and uses thereof” (CASE WESTERN RESERVE UNIVERSITY, priority 2018, dated 2021)", "key": {"[1]": {"experiment": "In vitro cytotoxicity assay (CCK-8, 72 h), PSMA-positive cells", "type": "cell-based", "conditions": "72 hours", "method": "(§1) Cells (1,000/well) were seeded in 96-well culture plates the day before treatment. Cells were incubated with various concentrations of drugs for 72 hours and cell viability evaluated by CCK-8 (Dojindo). The concentration required to reach 50% of cell proliferation was determined (IC50) by GraphPad Prism 3.0."}, "[2]": {"system": "PC3pip cells", "experiment": "In vitro cytotoxicity assay (CCK-8, 72 h), PSMA-positive cells", "type": "cell-based", "method": "as §1"}, "[3]": {"experiment": "In vitro cytotoxicity assay (CCK-8, 72 h), PSMA-negative cells", "type": "cell-based", "conditions": "72 hours, CCK-8; read-out: IC50, cytotoxicity to PC3flu cells", "method": "as §1"}, "[4]": {"system": "PC3flu cells", "experiment": "In vitro cytotoxicity assay (CCK-8, 72 h), PSMA-negative cells", "type": "cell-based", "conditions": "relative to PSMA-1-VcMMAE-Cy5.5", "method": "as §1"}, "[5]": {"experiment": "Maximum tolerated dose (single i.v. dose)", "type": "in vivo, mice", "text": "Mice were monitored daily for 14 days."}, "[6]": {"system": "heterotopic PC3pip tumors", "experiment": "Heterotopic PC3pip tumor survival / antitumor study", "type": "in vivo", "text": "Male athymic nude mice were implanted subcutaneously with 1×10^6 of PC3pip cells under the right dorsum of the mice. When tumor size reached approximately 100 mm^3 (tumor volume=Length×width^2/2), mice received drugs through tail vein injection. […] Animals were weighed and tumor size measured every other day for 90 days. Cures were defined as no tumor present at end of the 90-day study. When tumors became too large or animals were moribund they were euthanized. Five mice were used in each group."}, "[7]": {"system": "orthotopic PC3pip tumors", "experiment": "Orthotopic PC3pip tumor survival study", "type": "in vivo, mice", "method": "Surgical orthotopic tumor implantation was performed as previously reported. Tumor growth/size was monitored using Siemens Acuson […] ultrasound scanner. When the tumors were at the appropriate size (5 mm as measured by ultrasound, approximately 2 weeks) animals were given PSMA-1-VcMMAE, PSMA-1-VcMMAE-Cy5.5, or PBS every four days with a total of 5 doses. Tumors were monitored every other day by ultrasound. Each group had five mice."}, "[8]": {"system": "metastatic PC3pip model", "experiment": "Metastatic PC3pip survival study (intracardiac GFP-PC3pip)", "type": "in vivo, mice", "conditions": "dose not stated", "method": "Male athymic nude mice were injected into the left ventricle of the heart with 1×10^5 GFP labeled PC3pip cells to generate bone metastasis. One week later mice received 160 nmol/kg PSMA-1-VcMMAE-Cy5.5 or PBS every 4 days with a total of 5 doses and the progression of disease was monitored by GFP imaging. Five mice were used in each group."}, "[9]": {"conditions": "3820 nmol/kg every 4 days, 5 doses"}}, "note": "*1 amine or outer side, *2 acyl side, *3 side chain or, on linkers, in order; H or OH if unused. Where a SMILES comes first, the peptide text is derived from it. Bridges are numbered along the chain shown (N, C = ends). Roman numbers before positions name the chains, in order. [ ]: non-standard residue; d: D form. The star is where a group is joined. Hexanoyl(6-succinimido-3yl) = O=C1CC([*:1])C(=O)N1CCCCCC(=O)[*:2]; Dolaproine = CO[C@@H]([C@@H]1CCCN1)[C@@H](C)C(=O)O; Dil = CC[C@H](C)[C@H](NC)[C@@H](CC(=O)O)OC; γGlu = O=C(O)[C@H](CCC(=O)[*:2])N[*:1]; PABC = O=C(OCc1ccc(N[*:1])cc1)[*:2]; X4 = C[C@@H](N*)[C@@H](O)c1ccccc1; X1 = O=C(C1CCC(CN[*:1])CC1)[*:2]; Cit = NC(=O)NCCC[C@H](N)C(=O)O; NMeV = CN[C@H](C(=O)O)C(C)C; CO = O=C([*:1])[*:2]; Ahx = NCCCCCC(=O)O", "data": [{"smiles": "CC[C@H](C)[C@@H]([C@@H](CC(=O)N1CCC[C@H]1[C@H](OC)[C@@H](C)C(=O)N[C@H](C)[C@@H](O)c1ccccc1)OC)N(C)C(=O)[C@@H](NC(=O)[C@H](C(C)C)N(C)C(=O)OCc1ccc(NC(=O)[C@H](CCCNC(N)=O)NC(=O)[C@@H](NC(=O)CCCCCN2C(=O)CC(SC[C@H](NC(=O)[C@H](CCC(=O)O)NC(=O)[C@H](CCC(=O)O)NC(=O)[C@H](CCC(=O)O)NC(=O)CCCCCNC(=O)C3CCC(CNC(=O)CC[C@H](NC(=O)N[C@@H](CCC(=O)O)C(=O)O)C(=O)O)CC3)C(=O)NCCCCCC(=O)N[C@@H](CCCCN)C(N)=O)C2=O)C(C)C)cc1)C(C)C", "note": "(stereo partly shown) [PSMA-1-VcMMAE] (I: {Glu-CO-γGlu}-[X1][Ahx]EEEC[Ahx]K-NH2 / II: V[Cit][PABC][NMeV]V[Dil][Dolaproine]-X4; linker I:6-II:N via Hexanoyl(6-succinimido-3yl); C-terminus assumed)", "values": [{"measurement": "IC50", "setting": "[1]; CCK-8, read-out: IC50, cytotoxicity to PC3pip cells", "result": 4.64, "unit": "nM"}, {"measurement": "selectivity ratio", "setting": "[1]; PC3flu IC50 over PC3pip IC50, read-out: selectivity, differential cytotoxicity PC3pip vs PC3flu cells", "result": 48}, {"measurement": "potency to kill PC3pip cells in the presence of PSMA-1 ligand", "setting": "[2]; 10 μM of PSMA-1", "result": "reduced to the same potency to kill PC3flu cells"}, {"measurement": "ratio of IC50's between PC3pip and PC3flu cells", "setting": "[2]; 72 hours", "result": 48.2}, {"measurement": "effect of protease inhibitor E64 on cell killing potency", "setting": "[2]; co-incubation with 50 μM E64", "result": "susceptible to E64 protease inhibition"}, {"measurement": "increase of IC50 against PC3pip cells on removal of the Cy5.5 moiety", "setting": "[2]; relative to PSMA-1-VcMMAE-Cy5.5", "result": 6.2, "unit": "fold"}, {"measurement": "IC50", "setting": "[3]", "result": 222, "unit": "nM"}, {"measurement": "increase of IC50 against PC3flu cells on removal of the Cy5.5 moiety", "setting": "[4]", "result": 11.1, "unit": "fold"}, {"measurement": "MTD", "setting": "[5]; mouse, in vivo, iv, single dose i.v., tumor-free athymic nude mice, 14 days", "result": 7.64, "unit": "µmol/kg"}, {"measurement": "MTD relative to MMAE", "setting": "[5]; single dose", "result": "more than 10 fold"}, {"measurement": "inhibition of PC3pip tumor growth compared with PC3flu tumor growth", "setting": "[6]; 955 nmol/kg", "result": "significantly more effective"}, {"measurement": "animal survival", "setting": "[6]; [9]", "result": "all 5 mice survived the 90-day experimental time"}, {"measurement": "cure (tumor free at end of 90-day study)", "setting": "[6]; [9]", "result": 60, "unit": "%"}, {"measurement": "tumor growth when given every 7 days", "setting": "[6]; every 7 days, model not stated", "result": "greatly inhibited tumor growth"}, {"measurement": "lowest dose effectively inhibiting tumor growth", "setting": "[6]; mouse, in vivo", "result": 191, "unit": "nmol/kg"}, {"measurement": "body weight loss", "setting": "[6]; up to highest dose tested, 3820 nmol/kg", "result": "No body weight loss"}, {"measurement": "tumor free mice", "setting": "[7]; 3860 nmol/kg, five mice per group", "result": 1, "unit": "mouse"}, {"measurement": "tumor growth and survival", "setting": "[7]; every four days, 5 doses, significant at 1910 and 3860 nmol/kg", "result": "Inhibition of tumor growth and extension of animal survival time"}, {"measurement": "survival and body weight", "setting": "[8]", "result": "prolong animal survival time with no body weight loss"}]}]}
